Test results as given in patent publication US9718828B2 (MERCK SHARP & DOHME CORP., priority 2011, dated 2017).
Structures can show the parent of a compound that is named as a salt.

Each compound was assayed against hBTK (full-length BTK, 6HIS-tag cleaved) (Homo sapiens (Human), UniProt Q06187) (assay: BTK enzymatic activity, LANCE TR-FRET assay (Assay Method C)). Settings: LANCE TR-FRET, 50 pM hBTK, 25 μM ATP; class 100-1000 is given as ≧100 nM-<1 μM; read-out: IC50 Btk activity values - Assay Method C.
hBTK (full-length BTK, 6HIS-tag cleaved), sequence (Q06187 whole entry): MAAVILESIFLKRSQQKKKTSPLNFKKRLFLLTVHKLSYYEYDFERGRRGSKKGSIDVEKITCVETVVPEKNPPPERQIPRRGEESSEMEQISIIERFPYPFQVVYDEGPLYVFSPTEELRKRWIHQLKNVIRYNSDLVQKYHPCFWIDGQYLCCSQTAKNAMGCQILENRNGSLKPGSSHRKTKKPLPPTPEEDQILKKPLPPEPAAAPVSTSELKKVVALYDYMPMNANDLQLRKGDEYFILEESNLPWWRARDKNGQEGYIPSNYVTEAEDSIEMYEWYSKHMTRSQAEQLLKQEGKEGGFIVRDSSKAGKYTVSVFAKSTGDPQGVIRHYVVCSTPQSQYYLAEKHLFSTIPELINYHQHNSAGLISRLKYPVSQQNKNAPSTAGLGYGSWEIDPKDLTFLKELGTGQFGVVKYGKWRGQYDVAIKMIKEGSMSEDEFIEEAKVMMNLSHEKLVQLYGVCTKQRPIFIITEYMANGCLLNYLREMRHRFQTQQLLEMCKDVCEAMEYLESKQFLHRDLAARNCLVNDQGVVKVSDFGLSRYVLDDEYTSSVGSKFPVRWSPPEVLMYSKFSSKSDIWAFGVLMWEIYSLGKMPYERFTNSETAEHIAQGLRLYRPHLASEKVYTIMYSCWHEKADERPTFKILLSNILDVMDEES
Type: biochemical
Work on `CN1CC(C(=O)N2CCO[C@@H](c3nc(-c4ccc(C(=O)Nc5cc(C(F)(F)F)ccn5)cc4)c4c(N)nccn34)C2)C1` [Example 501, 4-(8-amino-3-{(2R)-4-[(1-methylazetidin-3-yl)carbonyl]morpholin-2-yl}imidazo[1,5-a]pyrazin-1-yl)-N-[4-(trifluoromethyl)pyridin-2-yl]benzamide] yielded an IC50 of under 10 nM.
In the case of `CSCCC(=O)N1CCO[C@@H](c2nc(-c3ccc(C(=O)Nc4cc(C(F)(F)F)ccn4)cc3)c3c(N)nccn23)C1` [Example 502, 4-(8-amino-3-{(2R)-4-[3-(methylsulfanyl)propanoyl]morpholin-2-yl}imidazo[1,5-a]pyrazin-1-yl)-N-[4-(trifluoromethyl)pyridin-2-yl]benzamide], the IC50 is reported as under 10 nM.
Compound `CCOCCC(=O)N1CCO[C@@H](c2nc(-c3ccc(C(=O)Nc4cc(C(F)(F)F)ccn4)cc3)c3c(N)nccn23)C1` [Example 503, 4-{8-amino-3-[(2R)-4-(3-ethoxypropanoyl)morpholin-2-yl]imidazo[1,5-a]pyrazin-1-yl}-N-[4-(trifluoromethyl)pyridin-2-yl]benzamide] has an IC50 of under 10 nM.
`Nc1ncc(Cl)n2c([C@H]3CNCCO3)nc(-c3ccc(C(=O)Nc4cc(C(F)(F)F)ccn4)cc3)c12` [Example 504, 4-{8-amino-5-chloro-3-[(2R)-morpholin-2-yl]imidazo[1,5-a]pyrazin-1-yl}-N-[4-(trifluoromethyl)pyridin-2-yl]benzamide] was tested, and the IC50 was under 10 nM.
Compound `CC1(C(=O)N2CCO[C@@H](c3nc(-c4ccc(C(=O)Nc5cc(C(F)(F)F)ccn5)cc4)c4c(N)ncc(Cl)n34)C2)COC1` [Example 505, 4-(8-amino-5-chloro-3-{(2R)-4-[(3-methyloxetan-3-yl)carbonyl]morpholin-2-yl}imidazo[1,5-a]pyrazin-1-yl)-N-[4-(trifluoromethyl)pyridin-2-yl]benzamide] has an IC50 of under 10 nM.
Compound `Cc1cnc(N)c2c(-c3ccc(C(=O)Nc4cc(C(F)(F)F)ccn4)cc3)nc([C@H]3CN(C(=O)C4(C)COC4)CCO3)n12` [Example 506, 4-(8-amino-5-methyl-3-{(2R)-4-[(3-methyloxetan-3-yl)carbonyl]morpholin-2-yl}imidazo[1,5-a]pyrazin-1-yl)-N-[4-(trifluoromethyl)pyridin-2-yl]benzamide] has an IC50 of 10 to 100 nM.
`CC1(CN2CCO[C@@H](c3nc(-c4ccc(C(=O)Nc5cc(C(F)(F)F)ccn5)cc4)c4c(N)nccn34)C2)COC1` [Example 507, 4-(8-amino-3-{(2R)-4-[(3-methyloxetan-3-yl)methyl]morpholin-2-yl}imidazo[1,5-a]pyrazin-1-yl)-N-[4-(trifluoromethyl)pyridin-2-yl]benzamide] showed an IC50 of under 10 nM.
Compound `Nc1nccn2c([C@H]3CN(CC4CC4)CCO3)nc(-c3ccc(C(=O)Nc4cc(C(F)(F)F)ccn4)cc3)c12` [Example 508, 4-{8-amino-3-[(2R)-4-(cyclopropylmethyl)morpholin-2-yl]imidazo[1,5-a]pyrazin-1-yl}-N-[4-(trifluoromethyl)pyridin-2-yl]benzamide] has an IC50 of under 10 nM.
With `Cc1cnc(N)c2c(-c3ccc(C(=O)Nc4cc(C(F)(F)F)ccn4)cc3)nc([C@H]3CN(Cc4cnn(C)c4)CCO3)n12` [Example 509, 4-(8-amino-5-methyl-3-{(2R)-4-[(1-methyl-1H-pyrazol-4-yl)methyl]morpholin-2-yl}imidazo[1,5-a]pyrazin-1-yl)-N-[4-(trifluoromethyl)pyridin-2-yl]benzamide] the IC50 was under 10 nM.
In the case of `COCCC(=O)N1CCO[C@@H](c2nc(-c3ccc(C(=O)Nc4cc(C(F)(F)F)ccn4)cc3)c3c(N)ncc(C)n23)C1` [Example 510, 4-{8-amino-3-[(2R)-4-(3-methoxypropanoyl)morpholin-2-yl]-5-methylimidazo[1,5-a]pyrazin-1-yl}-N-[4-(trifluoromethyl)pyridin-2-yl]benzamide], the IC50 is reported as under 10 nM.
Compound `CCN1CCO[C@@H](c2nc(-c3ccc(C(=O)Nc4cc(C(F)(F)F)ccn4)cc3)c3c(N)ncc(C)n23)C1` [Example 511, 4-{8-amino-3-[(2R)-4-ethylmorpholin-2-yl]-5-methylimidazo[1,5-a]pyrazin-1-yl}-N-[4-(trifluoromethyl)pyridin-2-yl]benzamide] has an IC50 of under 10 nM.
With `Nc1nccn2c([C@H]3CN(C(=O)C4CC4)CCO3)nc(-c3ccc(C(=O)Nc4cc(C(F)(F)F)ccn4)cc3F)c12` [Example 512, 4-{8-amino-3-[(2R)-4-(cyclopropylcarbonyl)morpholin-2-yl]imidazo[1,5-a]pyrazin-1-yl}-3-fluoro-N-[4-(trifluoromethyl)pyridin-2-yl]benzamide, TFA salt] the IC50 was under 10 nM.
`CC1(C(=O)N2CCO[C@@H](c3nc(-c4ccc(C(=O)Nc5cc(C(F)(F)F)ccn5)cc4F)c4c(N)nccn34)C2)COC1` [Example 513, 4-(8-amino-3-{(2R)-4-[(3-methyloxetan-3-yl)carbonyl]morpholin-2-yl}imidazo[1,5-a]pyrazin-1-yl)-3-fluoro-N-[4-(trifluoromethyl)pyridin-2-yl]benzamide, TFA salt] gave an IC50 of under 10 nM.
For `Cc1cnc(N)c2c(-c3ccc(C(=O)Nc4cc(C(F)(F)F)ccn4)cc3F)nc([C@H]3CN(C(=O)C4(C)COC4)CCO3)n12` [Example 514, 4-(8-amino-5-methyl-3-{(2R)-4-[(3-methyloxetan-3-yl)carbonyl]morpholin-2-yl}imidazo[1,5-a]pyrazin-1-yl)-3-fluoro-N-[4-(trifluoromethyl)pyridin-2-yl]benzamide], the IC50 was under 10 nM.
In the case of `C[C@H]1CO[C@@H](c2nc(-c3ccc(C(=O)Nc4cc(C(F)(F)F)ccn4)cc3)c3c(N)nccn23)CN1C(=O)C1(C)COC1` [Example 515, 4-(8-amino-3-{(2R,5S)-5-methyl-4-[(3-methyloxetan-3-yl)carbonyl]morpholin-2-yl}imidazo[1,5-a]pyrazin-1-yl)-N-[4-(trifluoromethyl)pyridin-2-yl]benzamide, TFA salt], the IC50 is reported as under 10 nM.
With `C[C@H]1CO[C@@H](c2nc(-c3ccc(C(=O)Nc4cc(C(F)(F)F)ccn4)cc3)c3c(N)nccn23)CN1C(=O)C1CC1` [Example 516, 4-{8-amino-3-[(2R,5S)-4-(cyclopropylcarbonyl)-5-methylmorpholin-2-yl]imidazo[1,5-a]pyrazin-1-yl}-N-[4-(trifluoromethyl)pyridin-2-yl]benzamide, TFA salt] the IC50 was under 10 nM.
In the case of `Nc1nccn2c([C@H]3CN(C(=O)CO)CCO3)nc(-c3ccc(C(=O)Nc4cc(C(F)(F)F)ccn4)cc3)c12` [Example 517, 4-{8-amino-3-[(2R)-4-(hydroxyacetyl)morpholin-2-yl]imidazo[1,5-a]pyrazin-1-yl}-N-[4-(trifluoromethyl)pyridin-2-yl]benzamide], the IC50 is reported as under 10 nM.
In the case of `CCOCC(=O)N1CCO[C@@H](c2nc(-c3ccc(C(=O)Nc4cc(C(F)(F)F)ccn4)cc3)c3c(N)nccn23)C1` [Example 518, 4-{8-amino-3-[(2R)-4-(ethoxyacetyl)morpholin-2-yl]imidazo[1,5-a]pyrazin-1-yl}-N-[4-(trifluoromethyl)pyridin-2-yl]benzamide], the IC50 is reported as under 10 nM.
Work on `C[C@H](O)C(=O)N1CCO[C@@H](c2nc(-c3ccc(C(=O)Nc4cc(C(F)(F)F)ccn4)cc3)c3c(N)nccn23)C1` [Example 519, 4-(8-amino-3-{(2R)-4-[(2S)-2-hydroxypropanoyl]morpholin-2-yl}imidazo[1,5-a]pyrazin-1-yl)-N-[4-(trifluoromethyl)pyridin-2-yl]benzamide] yielded an IC50 of under 10 nM.
